Measurements reported in patent US20040106802A1, “Novel compounds and therapeutic uses thereof” (TORRENT PHARMACEUTICALS LTD., priority 2002, published 2004).
Counter-ions that a name gives are not always drawn.

Target: T1, Porcine DPP-IV (Sus scrofa, UniProt P22411)
T1 construct: purchased Sigma-Aldrich Germany
Assay: Assay of DPP-IV enzyme inhibitory activity (spectrophotometric, Gly-Pro-pNA cleavage)
Format: biochemical
Conditions: Porcine DPP-IV, Gly-Pro-pNA substrate, 30° C.; mean ± SD of three experiments except compound Nos. 133 & 139; read-out: IC50 (μM) Mean ± SD, inhibitory activity on DPP-IV enzyme activity
Experimental: Assay of DPP-IV Enzyme Inhibitory Activity.
The assay method is a modified method (as described by Welch et al, 1998) based on spectrophotometric determination of the product formed by penultimate proline cleaving activity of the enzyme.
Assay protocol involves incubation of the enzyme dipeptidyl peptidase IV with the test substance at 30° C. for 30 min followed by addition of this reaction mixture to the substrate Gly-Pro-pNA that was equilibrated at 30° C. for 2 min. The enzyme cleaves the substrate at penultimate proline and releases p-nitroanilide, the optical density of which is measured at 385 nm. The formation of p-nitroanilide will be reduced in the presence of inhibitor. […] The activity of molecule is expressed in terms of % inhibition. At least three different concentrations were tried out for each of the test substances. The percentage inhibitions for each of the concentrations were plotted and an IC50 of the test compound was worked out. The enzyme inhibitory activity of different test compounds were compared based on the IC50 values.
The percentage inhibition % I, is calculated using the formula:
% I=[(1−vi/v0)]*100 where vi and v0 are the Vmax values with and without the test substance, respectively.
Substrate solution: 0.5 mM in 45 mM phosphate buffer
Substrate used: Gly-Pro-p-nitroanilide (Source: Sigma-Aldrich Co. Germany)
3.288 mg substrate in 1 ml 45 mM phosphate buffer was prepared as stock solution. 0.25 ml of this stock solution was diluted to 5 ml to get 0.5 mM substrate solution (90 μl to be added in each well). The stock solution of the substrate was used within three days of preparation.
Enzyme solution: Porcine DPP-IV (Sigma-Aldrich Germany) was used throughout the study. 0.4 mU in 80 μl of Tris. HCl buffer was prepared. Fresh solutions were prepared everyday for the assays.
Various concentrations of inhibitor were used: 0.391 μM, 0.781 μM, and 3.125 μM. Solutions of inhibitor were prepared and used on the same day.
280 μl of enzyme solution (0.4-mU/80 μl in Tris HCl buffer) was added to the eppendorf containing 70 μl solution of inhibitor or vehicle and mixed. This reaction mixture was incubated for 30 min at 30° C. The 96 well plate containing substrate solution was thermally equilibrated in the spectrophotometer for 2 min at 30° C. Later 100 μl of the enzyme-inhibitor pre-incubation solution was added to respective wells in a 96 well plate. Each concentration of the inhibitor was tested in triplicates.
The rate of change in UV absorbance (in presence of various concentrations of the inhibitor) was measured at 385 nm, with respect to wells containing only 0.5 mM substrate in 45 mM phosphate buffer as blank at every 10 min for 2 hours after adding enzyme-inhibitor mixture to wells containing substrate solution.

T1 sequence (P22411 whole entry): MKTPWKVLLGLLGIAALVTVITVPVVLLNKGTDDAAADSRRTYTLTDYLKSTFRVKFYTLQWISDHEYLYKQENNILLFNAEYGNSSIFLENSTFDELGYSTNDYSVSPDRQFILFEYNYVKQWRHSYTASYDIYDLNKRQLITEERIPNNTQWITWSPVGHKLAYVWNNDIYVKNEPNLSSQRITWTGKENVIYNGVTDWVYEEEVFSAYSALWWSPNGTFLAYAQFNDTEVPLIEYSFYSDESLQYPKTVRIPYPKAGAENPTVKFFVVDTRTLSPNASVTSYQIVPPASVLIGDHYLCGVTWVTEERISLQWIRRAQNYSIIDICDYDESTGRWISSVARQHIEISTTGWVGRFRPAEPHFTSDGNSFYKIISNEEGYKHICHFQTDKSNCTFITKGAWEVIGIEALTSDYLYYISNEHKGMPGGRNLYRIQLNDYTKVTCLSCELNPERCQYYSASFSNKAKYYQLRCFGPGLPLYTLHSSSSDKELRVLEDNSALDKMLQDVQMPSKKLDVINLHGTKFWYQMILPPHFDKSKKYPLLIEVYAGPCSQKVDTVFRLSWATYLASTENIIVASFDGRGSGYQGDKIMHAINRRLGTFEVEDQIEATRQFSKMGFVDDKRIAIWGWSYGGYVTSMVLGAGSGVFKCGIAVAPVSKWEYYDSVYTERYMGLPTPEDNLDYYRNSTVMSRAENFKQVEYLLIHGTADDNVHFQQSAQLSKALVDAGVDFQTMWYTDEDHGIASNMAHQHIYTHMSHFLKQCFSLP

| SMILES | IC50 |
| --- | --- |
| N#CC1CCCN1C(=O)CN(N)c1ccccc1 (stereo not drawn) [Compound No. 3, 1-[1-Oxo-2-((1-phenyl)-hydrazino)] ethyl-2-cyano pyrrolidine trifluoroacetate] | 34.1 ± 4.57 µM |
| N#CC1CCCN1C(=O)CNN (stereo not drawn) [Compound No. 4, 1-[1-Oxo-2-(1-hydrazino)]ethyl-2-cyano pyrrolidine trifluoroacetate] | 88.6 ± 18.1 µM |
| N#CC1CSCN1C(=O)CN(N)c1ccccc1 (stereo not drawn) [Compound No. 9, 3-[1-Oxo-2-((1-phenyl)hydrazino)]ethyl-4-cyano Thiazolidine Trifluoroacetate] | 6.18 ± 0.88 µM |
| CC(C)CN(N)CC(=O)N1CCCC1C#N (stereo not drawn) [Compound No. 10, 1-[1-Oxo-2-(1-(2-methylpropyl)hydrazino)]ethyl-2-cyano pyrrolidine trifluoroacetate] | 69.8 ± 17.5 µM |
| CC(C)N(N)CC(=O)N1CCCC1C#N (stereo not drawn) [Compound No. 12, 1-[1-Oxo-2-((1-(1-methyl)ethyl)hydrazino)]ethyl-2-cyano pyrrolidine trifluoroacetate] | 61.3 ± 4.55 µM |
| CCN(CC)NCC(=O)N1CSCC1C#N (stereo not drawn) [Compound No. 13, 1-[1-Oxo-2-((2,2-diethyl)-hydrazino)]ethyl-2-cyano thiazolidine] | 57.1 ± 3.76 µM |
| CCN(N)CC(=O)N1CCCC1C#N (stereo not drawn) [Compound No. 14, 1-[1-Oxo-2-((1-ethyl)hydrazino)]ethyl-2-cyano pyrrolidine trifluoroacetate] | 93.7 ± 5.54 µM |
| N#CC1CSCN1C(=O)CNN (stereo not drawn) [Compound No. 15, 3-[1-Oxo-2-(1-hydrazino)]ethyl-4-cyano thiazolidine trifluoroacetate] | 41.9 ± 11.6 µM |
| N#CC1CSCN1C(=O)CN(N)Cc1ccccc1 (stereo not drawn) [Compound No. 16, 3-[1-Oxo-2-((1-phenylmethyl)hydrazino)]ethyl-4-cyano thiazolidine trifluoroacetate] | 9.29 ± 0.64 µM |
| N#CC1CSCN1C(=O)CN(N)Cc1ccc([N+](=O)[O-])cc1 (stereo not drawn) [Compound No. 17, 3-[1-Oxo-2-((1-(4-nitrophenylmethyl))hydrazino)]ethyl-4-cyano thiazolidine trifluoroacetate] | 35.8 ± 1.03 µM |
| N#CC1CCCN1C(=O)CN(N)C1CCCC1 (stereo not drawn) [Compound No. 18, 1-[1-Oxo-2-((1-Cyclopentyl)-hydrazino)]ethyl-2-cyano pyrrolidine trifluoroacetate] | 32.1 ± 1.65 µM |
| N#CC1CCCN1C(=O)CN(N)C1CCCCC1 (stereo not drawn) [Compound No. 20, 1-[1-Oxo-2-((1-Cyclohexyl)-hydrazino)]ethyl-2-cyano pyrrolidine trifluoroacetate] | 33.7 ± 0.99 µM |
| CCC(C)N(N)CC(=O)N1CCCC1C#N (stereo not drawn) [Compound No. 22, 1-[1-Oxo-2-((1-methylpropyl)hydrazino)]ethyl-2-cyano pyrrolidine trifluoroacetate] | 76.5 ± 7.51 µM |
| CCC(C)N(N)CC(=O)N1CSCC1C#N (stereo not drawn) [Compound No. 23, 3-[1-Oxo-2-((1-methylpropyl)hydrazino)]ethyl-4-cyano thiazolidine trifluoroacetate] | 2.94 ± 0.15 µM |
| CC1CCC(NNCC(=O)N2CCCC2C#N)CC1 (stereo not drawn) [Compound No. 26, 1-[1-Oxo-2-((4-Methyl)cyclohexyl)hydrazino)]ethyl-2-cyano pyrrolidine trifluoroacetate] | 10 ± 0.79 µM |
| N#CC1CCCN1C(=O)CN(N)c1ccccn1 (stereo not drawn) [Compound No. 27, 1-[1-Oxo-2-(1-(2-Pyridyl)-hydrazino)]ethyl-2-cyano pyrrolidine bis-trifluoroacetate] | 43 ± 2.76 µM |
| N#CC1CSCN1C(=O)CN(N)C1CCCCCC1 (stereo not drawn) [Compound No. 28, 3-[1-Oxo-2-((1-Cycloheptyl)-hydrazino)] ethyl-4-cyano thiazolidine trifluoroacetate] | 2.29 ± 0.11 µM |
| N#CC1CCCN1C(=O)CN(N)C1CCCCCC1 (stereo not drawn) [Compound No. 30, 1-[1-Oxo-2-((1-Cycloheptyl)-hydrazino)]ethyl-2-cyano pyrrolidine trifluoroacetate] | 35.1 ± 2.66 µM |
| CC1CCC(NNCC(=O)N2CCCC2C#N)CC1 (stereo not drawn) [Compound No. 37, 1-[1-Oxo-2-(4-methylcyclohexyl)hydrazino]ethyl-2-cyanopyrrolidine trifluoroacetate] | 28.3 ± 4.6 µM |
| CC(C)N(N)CC(=O)N1CCCC1C#N (stereo not drawn) [Compound No. 41, 1-[1-Oxo-2-isopropyl-2-hydrazino]ethyl-2-cyano pyrrolidine trifluoroacetate] | 48.3 ± 1.75 µM |
| N#CC1CSCN1CC(=O)NN(CC(=O)N1CCCC1C#N)C1CCCCC1 (stereo not drawn) [Compound No. 50] | 60.1 ± 5.5 µM |

Results, then the compound that gave them:

| IC50 | SMILES |
| --- | --- |
| 217 ± 9.07 µM | N#CC1CSCN1C(=O)CN(N)C1CCN(CC(=O)NC2CC2)CC1 (single isomer, unassigned) [compound 146, 3-[1-oxo-2-(1-(1-(2-cyclopropyl-1-yl)aminoethyl)piperidin-4-yl)) hydrazino]ethyl-4-cyano thiazolidine, dihydrochloride] |
| 30.3 ± 5.5 µM | N#CC1CCCN1C(=O)CNNC1CCCCC1 (stereo not drawn) [Compound No. 34, 1-[1-Oxo-2-(2-cyclohexyl) hydrazino] ethyl-2-cyanopyrrolidine trifluoroacetate] |
| 23.3 ± 2.54 µM | CC(C)NN(CC(=O)N1CSCC1C#N)C1CCCCC1 (stereo not drawn) [Compound No. 36, 3-[1-Oxo-2-(1-cyclohexyl-2-isopropyl) hydrazino]ethyl-4-cyanothiazolidine hydrochloride] |
| 96.9 ± 23 µM | CC(C)NN(CC(=O)N1CCCC1C#N)C1CCCCC1 (stereo not drawn) [Compound No. 38, 1-[1-Oxo-2-(1-cyclohexyl-2-isopropyl)hydrazino]ethyl-2-cyano pyrrolidine] |
| 50.4 ± 4.59 µM | CC1CCC(CN(N)CC(=O)N2CCCC2C#N)CC1 (stereo not drawn) [Compound No. 39, 1-[1-Oxo-2-(1-(4-methylcyclohexylmethyl)hydrazino)]ethyl-2-cyanopyrrolidine trifluoroacetate] |
| 0.53 ± 0.09 µM | CCNN(CC(=O)N1CSCC1C#N)C1CCC(C)CC1 (stereo not drawn) [Compound No. 42, 3-[1-Oxo-2-(1-(4-methylcyclohexyl)-2-ethyl)hydrazino]ethyl-4-cyanothiazolidine trifluoroacetate] |
| 38.2 ± 2.56 µM | N#CC1CSCN1C(=O)CN(N)C(=O)N1CCOCC1 (stereo not drawn) [Compound No. 43, 3-[1-Oxo-2-(1-(4-morpholinocarbonyl) hydrazino)ethyl]-4-cyanothiazolidine trifluoroacetate] |
| 2.86 ± 0.18 µM | CC1CCC(N(CC(=O)N2CSCC2C#N)NC(C)C)CC1 (stereo not drawn) [Compound No. 44, 3-[1-Oxo-2-(1-(4-methylcyclohexyl)-2-isopropyl)hydrazino]ethyl-4-cyanothiazolidine trifluoroacetate] |
| 44 ± 1.92 µM | N#CC1CCCN1CC(=O)NN(CC(=O)N1CCCC1C#N)C1CCCCC1 (stereo not drawn) [Compound No. 45, 1-[1-Oxo-2-[(1-cyclohexyl)-2-(2-cyano-1-pyrrolidinoacetyl)]hydrazino]ethyl-2-cyanopyrrolidine trifluoroacetate] |
| 78.6 ± 4.58 µM | N#CC1CSCN1C(=O)CN(NC(=O)NCCc1ccccn1)C(=O)NCCc1ccccn1 (stereo not drawn) [Compound No. 46, 3-[1-Oxo-2-(1,2-bis-(2-(2-pyridyl)ethylaminocarbonyl)hydrazino)]ethyl-4-cyano thiazolidine bis trifluoroacetate] |
| 1.14 ± 0.09 µM | CC(C)(C)C1CCC(N(N)CC(=O)N2CSCC2C#N)CC1 (stereo not drawn) [Compound No. 47, 3-[1-Oxo-2-(1-(4-tert-butylcyclohexyl)hydrazino)]ethyl-4-cyanothiazolidine trifluoro acetate] |
| 45.2 ± 1.21 µM | N#CC1CCCN1C(=O)CN(N)C1CCCc2ccccc21 (stereo not drawn) [Compound No. 48, 1-[1-Oxo-2-(1-tetralinyl)hydrazino]ethyl-2-cyanopyrrolidine trifluoroacetate] |
| 1.04 ± 0.25 µM | CC(C)(C)C1CCC(N(N)CC(=O)N2CSCC2C#N)CC1 (stereo not drawn) [Compound No. 49, 3-[1-Oxo-2-(1-(4-tertbutylcyclohexyl)hydrazino)]ethyl-4-cyanothiazolidine trifluoroacetate] |
| 3.5 ± 0.06 µM | CC(C)N1CCC(N(N)CC(=O)N2CSCC2C#N)CC1 (stereo not drawn) [Compound No. 51, 3-[1-Oxo-2-(1-isopropyl-4-piperidinyl) hydrazino)]ethyl-4-cyano thiazolidine trifluoroacetate] |
| 16.7 ± 2.07 µM | CC1CCC(N(CC(=O)N2CSCC2C#N)NC2CCN(Cc3cccnc3)CC2)CC1 (stereo not drawn) [Compound No. 53, 3-[1-Oxo-2-[1-(4-methylcyclohexyl)-2-(1-(3-pyridinylmethyl)-4-piperidinyl)]hydrazino]ethyl-4-cyanothiazolidine] |
